According to article PMC8593021, “Biophysical and functional characterization of the human TAS1R2 sweet taste receptor overexpressed in a HEK293S inducible cell line” (Scientific Reports, 2021):

Key:
[1] = target: T1, hTAS1R2/hTAS1R3 (Homo sapiens, UniProt Q7RTX0+Q8TE23); assay: Calcium assay (GCaMP6S) in HEK293T-Gα16gust44 cells transfected with hTAS1R2-FLAG and hTAS1R3-FLAG; type: cell-based; details: HEK293T-Gα16gust44 cells transiently transfected with GCaMP6S
T1 construct: expressed in transfected cells; host or cells: HEK293T cells stably expressing Gα16gust44, transiently transfected
T1 sequence (Q8TE23 20-839): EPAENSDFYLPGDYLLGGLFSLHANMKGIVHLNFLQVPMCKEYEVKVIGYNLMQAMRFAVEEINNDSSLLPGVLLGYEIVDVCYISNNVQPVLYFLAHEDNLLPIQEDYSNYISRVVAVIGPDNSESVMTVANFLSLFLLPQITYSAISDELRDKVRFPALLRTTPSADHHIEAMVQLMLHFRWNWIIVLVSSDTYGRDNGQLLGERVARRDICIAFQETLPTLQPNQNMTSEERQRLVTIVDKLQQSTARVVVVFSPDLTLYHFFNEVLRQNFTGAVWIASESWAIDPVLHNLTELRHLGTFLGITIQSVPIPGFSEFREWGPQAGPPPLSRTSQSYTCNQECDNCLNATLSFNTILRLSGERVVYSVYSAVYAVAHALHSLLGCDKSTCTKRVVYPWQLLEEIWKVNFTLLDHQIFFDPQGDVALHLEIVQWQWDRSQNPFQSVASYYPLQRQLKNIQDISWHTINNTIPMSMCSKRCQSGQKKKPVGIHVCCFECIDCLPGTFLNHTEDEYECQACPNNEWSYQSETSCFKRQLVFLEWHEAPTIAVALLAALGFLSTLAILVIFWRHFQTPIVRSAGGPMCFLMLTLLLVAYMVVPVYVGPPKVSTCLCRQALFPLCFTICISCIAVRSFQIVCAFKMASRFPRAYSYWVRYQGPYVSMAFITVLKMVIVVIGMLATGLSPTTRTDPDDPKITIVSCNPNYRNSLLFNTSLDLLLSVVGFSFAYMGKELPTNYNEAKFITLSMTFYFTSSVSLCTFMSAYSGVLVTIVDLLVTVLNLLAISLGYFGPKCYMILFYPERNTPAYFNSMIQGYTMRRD
T1 sequence (Q7RTX0 21-852): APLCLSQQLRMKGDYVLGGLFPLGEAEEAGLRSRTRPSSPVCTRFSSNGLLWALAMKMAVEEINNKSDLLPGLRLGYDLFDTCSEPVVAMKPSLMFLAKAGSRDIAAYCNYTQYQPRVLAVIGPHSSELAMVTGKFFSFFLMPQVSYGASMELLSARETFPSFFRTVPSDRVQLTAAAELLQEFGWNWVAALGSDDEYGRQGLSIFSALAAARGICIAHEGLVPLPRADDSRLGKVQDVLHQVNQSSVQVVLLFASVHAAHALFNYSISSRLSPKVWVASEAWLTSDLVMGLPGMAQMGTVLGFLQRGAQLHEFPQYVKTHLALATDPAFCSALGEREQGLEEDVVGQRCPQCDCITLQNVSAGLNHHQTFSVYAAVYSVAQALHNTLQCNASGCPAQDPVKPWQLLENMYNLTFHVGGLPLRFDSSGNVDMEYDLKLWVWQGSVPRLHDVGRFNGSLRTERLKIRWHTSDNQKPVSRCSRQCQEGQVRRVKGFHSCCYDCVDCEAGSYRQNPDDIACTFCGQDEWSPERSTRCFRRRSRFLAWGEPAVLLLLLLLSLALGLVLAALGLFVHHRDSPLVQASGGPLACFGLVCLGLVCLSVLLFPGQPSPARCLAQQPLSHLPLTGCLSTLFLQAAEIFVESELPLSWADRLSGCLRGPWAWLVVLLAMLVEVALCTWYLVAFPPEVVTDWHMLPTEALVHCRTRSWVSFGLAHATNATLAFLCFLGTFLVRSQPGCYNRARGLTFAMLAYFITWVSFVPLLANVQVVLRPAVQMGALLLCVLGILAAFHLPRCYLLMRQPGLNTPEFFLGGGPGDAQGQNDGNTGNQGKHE
Excerpt: (§1) We used a calcium imaging assay to establish dose–response curves for the sweet taste receptor hTAS1R2/hTAS1R3 and determine EC50 values for the sweet stimuli previously tested in spectrofluorimetric experiments. We cloned the cDNAs coding hTAS1R2 and hTAS1R3 subunits into pcDNA6 and pcDNA4 expression plasmids, respectively, and we added FLAG tag to C-terminus of each construct to measure protein expression level by immunocytochemistry as described previously. HEK293T cells stably transfected with Gα16gust44 were seeded at a density of 0.35 × 10^6 cells per well into 96-well black walled, clear bottom microtiter plates (Falcon) in high-glucose DMEM supplemented with 2 mM GlutaMAX, 10% dialyzed foetal bovine serum, penicillin/streptomycin and G418 (400 µg/mL) at 37 °C and 6.3% CO2, in a humidified atmosphere. After 48 h, the cells were transiently transfected with each TAS1R subunit (60 ng/well for each plasmid) and plasmid pGP-CMV-GCaMP6S (Addgene #40753, 50 ng per well) coding for a green fluorescent protein-based calcium indicator, using Fugene HD (0.4 µL/well). After a further 24 h incubation, the cells were washed twice with buffer C1 and then stimulated with sweet tasting compounds. After excitation at 488 nm, calcium responses were recorded at 510 nm using a Molecular Devices FlexStation 3 system. Acquisition was made simultaneously from 8 wells corresponding to the range of taste solutions. We averaged the responses of 18 wells receiving the same stimulus one three independent experiments. We subtracted the mean calcium traces of mock-transfected cells stimulated with the same concentration of stimulus. Plots of the fluorescence variation amplitude versus concentration were fitted by four-parameter logistic nonlinear regression allowing us to calculate the EC50 values of activation.

[2] = target: T2, hTAS1R3 (Homo sapiens, UniProt Q7RTX0); assay: Calcium assay (GCaMP6S) in HEK293T-Gα16gust44 cells transfected with hTAS1R3-FLAG alone; type: cell-based; details: HEK293T-Gα16gust44 cells transiently transfected with GCaMP6S and hTAS1R3-FLAG alone
T2 construct: expressed in transfected cells; host or cells: HEK293T cells stably expressing Gα16gust44, transiently transfected
T2 sequence (Q7RTX0 21-852): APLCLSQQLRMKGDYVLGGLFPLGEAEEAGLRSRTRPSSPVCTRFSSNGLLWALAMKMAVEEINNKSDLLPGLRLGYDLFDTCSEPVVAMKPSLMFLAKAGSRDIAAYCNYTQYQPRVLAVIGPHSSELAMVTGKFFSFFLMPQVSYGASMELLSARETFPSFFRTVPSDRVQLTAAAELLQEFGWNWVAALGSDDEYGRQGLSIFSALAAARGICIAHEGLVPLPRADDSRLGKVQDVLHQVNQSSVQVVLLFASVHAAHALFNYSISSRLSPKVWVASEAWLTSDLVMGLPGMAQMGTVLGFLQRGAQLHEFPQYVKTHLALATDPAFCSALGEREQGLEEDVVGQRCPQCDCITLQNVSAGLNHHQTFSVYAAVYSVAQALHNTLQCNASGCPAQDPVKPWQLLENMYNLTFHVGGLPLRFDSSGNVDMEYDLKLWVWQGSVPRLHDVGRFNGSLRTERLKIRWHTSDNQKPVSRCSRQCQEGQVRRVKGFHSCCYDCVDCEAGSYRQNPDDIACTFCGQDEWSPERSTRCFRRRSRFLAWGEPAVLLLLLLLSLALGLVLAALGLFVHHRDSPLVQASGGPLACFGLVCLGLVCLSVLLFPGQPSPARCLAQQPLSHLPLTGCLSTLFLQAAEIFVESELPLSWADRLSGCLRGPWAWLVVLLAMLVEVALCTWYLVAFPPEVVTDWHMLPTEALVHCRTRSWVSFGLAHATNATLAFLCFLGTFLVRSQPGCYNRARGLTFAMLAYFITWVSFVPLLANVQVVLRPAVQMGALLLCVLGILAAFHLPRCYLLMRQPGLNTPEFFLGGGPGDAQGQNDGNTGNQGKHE
Excerpt: as §1

[3] = target: T3, hTAS1R2 (Homo sapiens, UniProt Q8TE23); assay: Intrinsic tryptophan fluorescence ligand binding to purified detergent-solubilized hTAS1R2; design: made in house; details: purified FLAG-tagged hTAS1R2 0.10 µM in PBS, 0.1% LMNG, 20 °C; λex 280 nm, λem 340 nm
T3 sequence (Q8TE23 20-839): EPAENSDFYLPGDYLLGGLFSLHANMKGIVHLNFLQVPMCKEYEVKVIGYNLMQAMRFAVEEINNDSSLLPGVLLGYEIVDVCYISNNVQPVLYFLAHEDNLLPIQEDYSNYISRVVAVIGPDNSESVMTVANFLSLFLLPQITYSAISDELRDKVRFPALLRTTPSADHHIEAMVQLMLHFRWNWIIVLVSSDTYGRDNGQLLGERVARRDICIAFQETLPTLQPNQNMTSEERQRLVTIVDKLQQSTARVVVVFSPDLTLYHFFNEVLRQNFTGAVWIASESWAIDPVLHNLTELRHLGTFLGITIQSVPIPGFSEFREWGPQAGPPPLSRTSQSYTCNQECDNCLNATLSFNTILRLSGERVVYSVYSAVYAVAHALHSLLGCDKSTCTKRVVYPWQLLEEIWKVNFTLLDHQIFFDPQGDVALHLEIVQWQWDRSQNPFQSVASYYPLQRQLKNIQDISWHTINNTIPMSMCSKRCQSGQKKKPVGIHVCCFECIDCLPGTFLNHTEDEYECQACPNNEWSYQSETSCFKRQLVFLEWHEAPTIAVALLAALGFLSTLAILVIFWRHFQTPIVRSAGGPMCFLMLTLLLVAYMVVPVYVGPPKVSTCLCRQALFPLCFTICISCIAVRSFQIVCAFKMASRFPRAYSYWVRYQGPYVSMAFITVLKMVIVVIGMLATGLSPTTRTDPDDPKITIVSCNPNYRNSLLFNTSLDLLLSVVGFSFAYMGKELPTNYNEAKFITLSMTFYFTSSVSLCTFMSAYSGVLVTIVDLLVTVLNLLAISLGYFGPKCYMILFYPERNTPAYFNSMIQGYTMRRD
Experimental: Intrinsic fluorescence spectra were recorded with a Cary Eclipse spectrofluorimeter (Varian Instruments, Les Ulis, France) equipped with a Peltier temperature control unit. The temperature was maintained at 20 °C. FLAG-tagged hTAS1R2 protein (0.10 µM in PBS, 0.1% LMNG buffer) was excited at 280 nm, and the emission spectra were recorded from 300 to 400 nm, with a 10 nm bandwidth for both excitation and emission in the presence and absence of ligands. The sweetener solutions were freshly prepared in PBS-0.1% LMNG buffer. Successive aliquots of ligand solutions were added to 400 µL of the FLAG-tagged hTAS1R2 solution. […] The fluorescence measurements were corrected for bleaching and nonspecific buffer quenching. The dissociation constants (Kd) were calculated from a plot of the fluorescence intensity measured at the maximum emission wavelength (340 nm) versus the concentration of total ligand obtained with a standard nonlinear regression method using SigmaPlot software (Systat Software Inc., San Jose, CA, USA). The reported Kd values are the average of triplicate measurements performed on at least three independently purified protein samples.

EC50 [1] [µM] | EC50 hTAS1R3 [2] | Kd [3] [µM] | SMILES
0.9 ± 0.09 | n.r. | 2.78 ± 0.69 | COC(=O)[C@H](Cc1ccccc1)NC(=O)[C@H](CC(=O)O)NCCC(C)(C)C [Neotame, neotame]
213 ± 59 | n.r. | 164 ± 53 | CC1=CC(=O)NS(=O)(=O)O1 [Acesulfame-K, acesulfame-K]

SMILES | EC50 [1] [µM] | EC50 hTAS1R3 [2] | Kd [3] [µM]
O=S(=O)(O)NC1CCCCC1 [Cyclamate-Na, cyclamate-Na] | 767 ± 83 | n.r. | –
